Source: patent US10125121B2, “FYN kinase inhibitors” (ROTTAPHARM BIOTECH S.R.L., priority 2015, dated 2018)
Like-named read-outs stand apart in the source and are kept apart here.

Columns and labels:
[1] = biological target: active FYN (human recombinant, 62.7 kDa) (Homo sapiens, UniProt P06241); experiment: In vitro kinase assay (Z′-LYTE FRET); assay type: biochemical; settings: read-out: IC50(nM) FYN INHIBITION
Description: Assays to determine the kinase inhibitory activity of compounds were performed using an automatic liquid handling device (Microlab STAR Hamilton) and Z′-LYTE™ Kinase Assay Platform, a Fluorescence Resonance Energy Transfer (FRET)-based assay platform compatible with high-throughput screening (HTS) applications. The assay employs a fluorescence-based, coupled-enzyme format and utilizes the differential sensitivity of phosphorylated and non-phosphorylated peptides to proteolytic cleavage.
All reagents were diluted in reaction buffer and the kinase reaction was carried out in a total volume of 10 μl, for 60 minutes at 25° C. The 0% Phosphorylation (i.e. no ATP) and 100% Phosphorylation (i.e. synthetically phosphorylated peptide supplied) Assay Controls, included in each plate, allowed to calculate the percent phosphorylation achieved in the specific reaction well. The 0% Inhibition and 0% Phosphorylation (i.e. 100% Inhibition) Controls define the dynamic range in the screen. At the end of incubation, a secondary reaction (the Development Reaction) started by adding 5 μl of Development Reagent, containing a site-specific protease that recognizes and cleaves non-phosphorylated peptides, and was interrupted after 60 minutes with 5 μl/sample of Stop Reagent.
The compounds were tested in a range of concentrations 10^−6-10^−9 M.
Results are expressed as percentage of inhibition and the IC50 values were calculated by non-linear curve fitting using GraphPad™ Prism software.

[2] = test system: NF-kB activation in JB6 CI 41-5a (P+) cells; experiment: Gene reporter (GR) assay, NF-kB luciferase after TNFα stimulation; assay type: cell-based, murine; settings: 1 h pre-treatment, 2 ng/ml TNFα for 4 h, read-out: IC50(nM) GR Inhibition
Source text: To determine if the compounds of the invention were active also in a cellular model, a gene reporter assay was established in a cell line (JB6 CI 41-5a (P+)) know to activate Fyn kinase via an inflammatory stimuli (TNFα). GR assay measures the activation of the nuclear transcription factor NF-kB, situated down-stream the Fyn activation pathway. Products active in this analysis has to penetrate in the cell and inhibit the activation pathway of NF-kB.
The murine epithelial cell line JB6 CI 41-5a (P+) (ATCC® Cat. # CRL-2010) was stably transfected with the pGL4.32[luc2P/NFkB-RE/Hygro] vector (Promega). Clonal selection was achieved by limiting dilution in MEM (+Earle's BSS+1.5 g/l sodium bicarbonate+0.1 mM NEAA)+GlutaMAX™-I, +1 mM sodium pyruvate, +5% FBS+80 μg/ml Hygromycin B. The clones were tested for their response to TNFα stimulus. The obtained transfected cells (JB6(P+) NFkB-RE-luc2P T3-C10) contained a firefly luciferase gene (luc2P) under the control of minimal TATA promoter with multiple Nuclear Factor-kB response elements (NFkB-REs). These NFkB-REs are DNA binding sequences for the NF-kB transcription factor.
JB6(P+) NFkB-RE-luc2P T3-C10 cells were used for the analysis of NF-kB activity modulation, after TNFα stimulation, by Fyn-inhibitors (Hwang et al.; Biochem. Pharmacol. 2009, 77 (7):1213-22).
6000 cells/well were plated in a 96× well plate. After 24 h new medium without antibiotics was given. After further 24 h the cells were pre-treated with the different compounds for 1 h and then stimulated with 2 ng/ml TNFα for 4 h. In each experiments two positive standards were always used, and each tested condition was analyzed in quadruplicate.
The luciferase analysis was performed with ONE-Glo™+ToxLuciferase Reporter and Cell Viability Assay kit (Promega). This assay combined luciferase assay chemistry with a cell viability marker to better understand reporter gene expression in the context of cell health. The assay uses a two-step process. The first part of the assay was a non-lytic fluorescence assay (CellTiter-Fluor™ Cell Viability Assay) that measured the relative number of live cells in a culture population, as it measures a conserved and constitutive protease activity within live cells. The live-cell protease activity was restricted to intact viable cells and was measured using a fluorogenic, cell-permeant peptide substrate (glycyl-phenylalanyl-aminofluorocoumarin; GF-AFC). The generated fluorescent signal, proportional to the number of living cells, was measured with EnVision microplate reader (PerkinElmer) using an excitation wavelength of 400 nm and emission wavelength of 500 nm.
The second part of the assay uses the ONE-Glo™ Luciferase Assay System to quantify firefly luciferase reporter gene expression. The ONE-Glo™ Assay contained a fluoro-luciferin substrate, more tolerant to sample components than standard luciferase assay reagents. Luminescence was measured with EnVision microplate reader (PerkinElmer).
Compounds of Formula (I) were tested for their capacity to penetrate into the cell and inhibit the activation pathway of NF-kB.

CFA induced hyperalgesia = experiment: CFA-induced inflammatory pain in rats (Randall-Selitto paw withdrawal threshold); assay type: in vivo; settings: rat, 24 h after administration
Description: Male Wistar rats were injected into the right hind footpad with 300 μg of Mycobacterium tuberculosis in 100 μL of liquid paraffin (Complete Freund's Adjuvant; CFA). Seventy-two hours later, compounds 2 and 26 were administered subcutaneously and 24 h after the administration, the response to noxious mechanical stimulation was assessed by measuring paw withdrawal threshold (PWT) with an analgesimeter of the Randall-Selitto type. Animals were gently restrained, and steadily increasing pressure was applied to the dorsal surface of both the ipsi-lateral (CFA-treated) and the contra-lateral paw via a dome-shaped plastic tip.
100% protection means that the animal treated with the compound and CFA can tolerate the same stimulus (weight) as the control animal which has not received CFA treatment.

JB6 CI 41-5a (P+) = experiment: Toxicity in JB6 cells (MTT method); assay type: cell-based, murine; settings: 3 μmolar, 24 hours of incubation
Description: Cell toxicity analysis in JB6 CI 41-5a (P+) is important to determine if the results obtained in GR assay are due to the pharmacological effect or to a toxicity effect of the products.
The murine epithelial cell line JB6 CI 41-5a (P+) (ATCC® Cat. # CRL-2010) was used to analyze the products cell toxicity by MTT method. 10^4 cells/well were plated in a 96× well plate MEM 5%. 48 h after plating the cells were pre-treated with the different compounds and positive standards for 1 h and then stimulated with TNFα (to simulate the same experimental conditions used in the gene reporter assay) for 4 and 24 h. At the end of the incubation time, the medium was removed and was substituted with a mixture 10:1 of MEM 5% MTT (2 mg/ml) for 1 h at 37° C. in the cell incubator. MTT is a tetrazolium salt especially useful for assaying the quantification of living metabolically active cells; it works by being metabolized by mitochondrial dehydrogenases to form a formazan dye (salt). After this incubation the supernatant was removed and the precipitated salt was dissolved with 100 μl of DMSO. The plate was then read at 540 nm. 100 μl of DMSO alone (without cells) were used as a blank, that was subtracted from the measure of each sample.

[3] = test system: mechanical hyperalgesia in meniscal tear osteoarthritis; experiment: Surgically induced meniscal tear osteoarthritis in the rat (MMT); assay type: in vivo; settings: for Pain threshold / Pain threshold: MPE (%): 10 mg/kg daily orally
Source text: Male Sprague Dawley rats (Charles River) approximately 350 g body weight were used. Rats were anesthetized using 2.5% isoflurane in oxygen with a flow rate of 1 I per minute. The right hind leg was shaved and surgically prepared. The medial collateral ligament was exposed and transected. The meniscus was grasped with a hemostat and reflected proximally toward the femur. The meniscus was cut through its full thickness at the narrowest point. The connective tissue layer and the skin were closed with coated Vicryl 8-0 and 4-0 silk sutures, respectively. Sham operated animals underwent an identical procedure with the exception that the medial collateral ligament was exposed but not transected. After a recovery period of 2 weeks, mechanical hyperalgesia was evaluated for the following 4 weeks, once a week, before and 90 minutes after drugs administration. Pharmacological oral treatment was performed for 28 days, starting from 14 days after surgery. After 6 weeks from surgery, rats (ten animals per group) were sacrificed and the ipsilateral knee was removed for histopathological analysis.
The maximum possible effect (MPE %) was calculated by the following formula: 100*(Compound−Vehicle)/(Sham−Vehicle)

Pharmacokinetics in rats = assay type: in vivo, rat; settings: 1 mg/kg orally

Sequence of active FYN (human recombinant, 62.7 kDa) (P06241 whole entry): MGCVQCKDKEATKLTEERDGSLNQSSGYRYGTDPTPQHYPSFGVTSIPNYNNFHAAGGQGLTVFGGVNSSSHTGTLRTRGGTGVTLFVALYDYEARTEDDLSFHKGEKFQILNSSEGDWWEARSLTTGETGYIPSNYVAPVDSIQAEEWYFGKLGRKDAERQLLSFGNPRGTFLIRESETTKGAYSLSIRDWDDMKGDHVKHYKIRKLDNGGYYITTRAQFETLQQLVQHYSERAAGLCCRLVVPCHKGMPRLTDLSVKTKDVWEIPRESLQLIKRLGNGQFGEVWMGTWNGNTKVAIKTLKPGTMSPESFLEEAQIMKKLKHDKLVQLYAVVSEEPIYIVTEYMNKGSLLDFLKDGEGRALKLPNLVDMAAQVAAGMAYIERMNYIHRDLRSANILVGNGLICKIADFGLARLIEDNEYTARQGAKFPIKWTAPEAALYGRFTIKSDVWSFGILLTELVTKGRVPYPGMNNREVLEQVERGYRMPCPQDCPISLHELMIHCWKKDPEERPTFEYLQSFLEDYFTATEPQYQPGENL

O=C(Nc1ccc(CN2CCN(c3nccc(Nc4cc(C5CC5)[nH]n4)n3)CC2)cc1)c1ncccc1C(F)(F)F [Compound 26, N-(4-((4-(4-((5-cyclopropyl-1H-pyrazol-3-yl)amino)pyrimidin-2-yl)piperazin-1-yl)methyl)phenyl)-3-(trifluoromethyl)-picolinamide]
IC50 [1]: 9 nM
IC50 ([2]; Mus musculus): 247 nM
% protective effect vs. CFA induced hyperalgesia (CFA induced hyperalgesia; 3): 100%

O=C(Nc1ccc(CN2CCN(c3nccc(Nc4cc(C5CC5)[nH]n4)n3)CC2)nc1)c1ccccc1C(F)(F)F [Compound 43, N-(6-((4-(4-((5-cyclopropyl-1H-pyrazol-3-yl)amino)pyrimidin-2-yl)piperazin-1-yl)methyl)pyridin-3-yl)-2-(trifluoromethyl)benzamide]
IC50 [1]: 27 nM
IC50 ([2]; Mus musculus): 1050 nM

CC(C)(C)n1nc(-c2ccc(Cl)cc2)c2c(N)ncnc21 [PP2, reference compound]
IC50 [2]: 505 nM
% protective effect vs. CFA induced hyperalgesia (CFA induced hyperalgesia; 3): 45%
% protective effect vs. CFA induced hyperalgesia (CFA induced hyperalgesia; 10): 47%
percent residual cell vitality (JB6 CI 41-5a (P+)): 18%
Pain threshold ([3]; day 14 post surgery): 285 g
Pain threshold ([3]; day 21 post surgery): 278 g
Pain threshold: MPE (%) ([3]; day 21 post surgery): 1.8%
Pain threshold ([3]; day 28 post surgery): 267 g
Pain threshold: MPE (%) ([3]; day 28 post surgery): 0%
Pain threshold ([3]; day 35 post surgery): 262 g
Pain threshold: MPE (%) ([3]; day 35 post surgery): 0%
Pain threshold ([3]; day 42 post surgery): 253 g
Pain threshold: MPE (%) ([3]; day 42 post surgery): 0%
tolerability ([3]; rat, oral, doses higher than 10 mg/kg): not tolerated
AUC (0-24 h) (Pharmacokinetics in rats): 160 ng·h/mL
